From patent US5644025A, “Tetrapeptides deriving from dalbaheptide antibiotics” (Gruppo Lepetit SPA, priority 1990, dated 1997)
≈ marks a conversion by molar mass, not a printed value.

Experiments:
Assay in all cases: in vitro antibacterial activity, MIC by dilution test in microtiter
[1] = system: Enterococcus faecalis ATCC 7,080; type: cell-based; conditions: strain L 149; Mueller-Hinton broth, inoculum about 5×10^5 cfu/ml, 0.01% bovine serum albumin, 37° C., 18-24 hours
Method: (§1) The in vitro antibacterial activity of the compounds is determined by means of standard […] tests in microtiter. Iso-Sensitest broth (Oxoid) is used for all bacteria except streptococci (Todd-Wewitt broth, Difco) and enterococci (Mueller-Hinton, Difco). Broth cultures are diluted so that the final inoculum is about 5×10^5 cfu/ml (colony forming units per ml). All broth microdilution MICs are performed in the presence of 0.01% bovine serum albumin (Pentax fraction V, Sigma).

S. aureus clin. isol. = type: cell-based; conditions: strain L 561; Iso-Sensitest broth, inoculum about 5×10^5 cfu/ml, 0.01% bovine serum albumin, 37° C., 18-24 hours
Method: as §1

[2] = system: S. epidermidis ATCC 12,228; type: cell-based; conditions: strain L 147; Iso-Sensitest broth, inoculum about 5×10^5 cfu/ml, 0.01% bovine serum albumin, 37° C., 18-24 hours
Method: as §1

[3] = system: S. epidermidis clin. isol.; type: cell-based; conditions: strain L 533; Iso-Sensitest broth, inoculum about 5×10^5 cfu/ml, 0.01% bovine serum albumin, 37° C., 18-24 hours
Method: as §1

Strep. pyogenes C203 = type: cell-based; conditions: strain L 49; Todd-Wewitt broth, inoculum about 5×10^5 cfu/ml, 0.01% bovine serum albumin, 37° C., 18-24 hours
Method: as §1

S. aureus Smith = type: cell-based; conditions: strain L 819; Iso-Sensitest broth, inoculum about 5×10^5 cfu/ml, 0.01% bovine serum albumin, 37° C., 18-24 hours
Method: as §1

Strep. pneumoniae UC41 = type: cell-based; conditions: strain L 44; Todd-Wewitt broth, inoculum about 5×10^5 cfu/ml, 0.01% bovine serum albumin, 37° C., 18-24 hours
Method: as §1

[4] = system: S. haemolyticus clin, isol.; type: cell-based; conditions: strain L 602; Iso-Sensitest broth, inoculum about 5×10^5 cfu/ml, 0.01% bovine serum albumin, 37° C., 18-24 hours
Method: as §1

Staph. aureus Tour = type: cell-based; conditions: strain L 165; Iso-Sensitest broth, inoculum about 5×10^5 cfu/ml, 0.01% bovine serum albumin, 37° C., 18-24 hours
Method: as §1

E. faecalis clin. isol. = type: cell-based, Enterococcus faecalis; conditions: for MIC: strain L 502, Mueller-Hinton broth, inoculum about 5×10^5 cfu/ml, 0.01% bovine serum albumin, 37° C., 18-24 hours
Method: as §1

N[C@H]1C(=O)N[C@@H]2Cc3ccc(c(Cl)c3)Oc3cc4cc(c3O)Oc3ccc(cc3Cl)[C@@H](O)[C@@H]3NC(=O)[C@H](NC(=O)[C@@H]4NC(=O)[C@@H](NC2=O)c2cc(O)cc(c2)Oc2cc1ccc2O)c1ccc(O)c(c1)-c1c(O)cc(O)cc1[C@@H](C(=O)O)NC3=O [teicoplanin aglycon]
MIC [1]: 0.13 µg/mL (≈ 0.108 µM) | MIC (S. aureus clin. isol.): 0.13 µg/mL (≈ 0.108 µM) | MIC [2]: 0.06 µg/mL (≈ 0.05 µM) | MIC [3]: 0.016 µg/mL (≈ 0.0133 µM) | MIC (Strep. pyogenes C203): 0.13 µg/mL (≈ 0.108 µM) | MIC (S. aureus Smith): 0.06 µg/mL (≈ 0.05 µM) | MIC (Strep. pneumoniae UC41): 0.13 µg/mL (≈ 0.108 µM) | MIC [4]: 0.25 µg/mL (≈ 0.209 µM) | MIC (Staph. aureus Tour): 0.13 µg/mL (≈ 0.108 µM) | activity against a clinical isolate of Enterococcus faecalis (in words) (E. faecalis clin. isol.): resistant | MIC (E. faecalis clin. isol.): > 128 µg/mL

teicoplanin
MIC [1]: 0.13 µg/mL | MIC (S. aureus clin. isol.): 8 µg/mL | MIC [2]: 8 µg/mL | MIC [3]: 8 µg/mL | MIC (Strep. pyogenes C203): 0.13 µg/mL | MIC (S. aureus Smith): 0.25 µg/mL | MIC (Strep. pneumoniae UC41): 0.13 µg/mL | MIC [4]: 32 µg/mL | MIC (Staph. aureus Tour): 0.13 µg/mL | activity against a clinical isolate of Enterococcus faecalis (in words) (E. faecalis clin. isol.): resistant | MIC (E. faecalis clin. isol.): > 128 µg/mL

(L-phenylalanyl)^3 -(D-lysyl)^15 -aglucoteicoplanin dalbaheptide methyl ester
MIC [1]: 0.5 µg/mL | MIC (S. aureus clin. isol.): 0.06 µg/mL | MIC [2]: 0.13 µg/mL | MIC [3]: 0.13 µg/mL | MIC (Strep. pyogenes C203): 0.25 µg/mL | MIC (S. aureus Smith): 0.13 µg/mL | MIC (Strep. pneumoniae UC41): 0.13 µg/mL | MIC [4]: 0.5 µg/mL | MIC (Staph. aureus Tour): 0.13 µg/mL | activity against a clinical isolate of Enterococcus faecalis (in words) (E. faecalis clin. isol.): surprisingly active | MIC (E. faecalis clin. isol.): 16 µg/mL
